The first assay deals with T1, STAT6 (Homo sapiens, UniProt P42226).
T1 construct: endogenous in cells; host or cells: MOLM-16, KU-812, SKNO1, MB231, L1236
T1 sequence (P42226 1-847): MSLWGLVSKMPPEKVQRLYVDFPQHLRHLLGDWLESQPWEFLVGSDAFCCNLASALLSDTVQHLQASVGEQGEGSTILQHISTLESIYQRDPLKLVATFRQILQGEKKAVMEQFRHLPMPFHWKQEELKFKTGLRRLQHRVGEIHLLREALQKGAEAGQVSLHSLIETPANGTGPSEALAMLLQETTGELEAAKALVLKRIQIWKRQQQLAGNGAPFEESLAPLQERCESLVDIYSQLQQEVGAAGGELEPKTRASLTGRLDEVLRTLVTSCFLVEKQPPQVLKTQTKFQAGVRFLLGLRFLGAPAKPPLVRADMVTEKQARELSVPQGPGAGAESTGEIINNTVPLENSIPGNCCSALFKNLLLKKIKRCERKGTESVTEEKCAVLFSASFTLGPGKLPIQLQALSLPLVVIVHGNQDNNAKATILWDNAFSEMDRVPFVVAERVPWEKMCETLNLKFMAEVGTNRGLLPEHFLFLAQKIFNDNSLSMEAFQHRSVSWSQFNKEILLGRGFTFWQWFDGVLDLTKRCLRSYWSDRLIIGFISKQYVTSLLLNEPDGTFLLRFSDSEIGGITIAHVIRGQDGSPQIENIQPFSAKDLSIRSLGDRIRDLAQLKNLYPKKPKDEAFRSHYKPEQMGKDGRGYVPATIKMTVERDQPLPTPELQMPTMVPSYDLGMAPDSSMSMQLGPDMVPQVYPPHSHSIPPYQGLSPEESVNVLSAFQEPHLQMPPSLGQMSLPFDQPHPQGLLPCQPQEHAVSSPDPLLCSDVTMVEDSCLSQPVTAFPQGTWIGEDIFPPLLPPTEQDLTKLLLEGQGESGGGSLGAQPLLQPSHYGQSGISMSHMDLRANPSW
In words: Immunoblotting (Western blot) analysis of STAT6 degradation efficiency of degraders in treated cells. It counts as cell-based. Conditions: MOLM-16 cells, class symbols, read-out: DC50 S6 MOLM-16. In a few lines: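 Cells (~1 million per point) treated with compounds at indicated concentrations and times, lysed in RIPA with protease/phosphatase inhibitors; 20-40 μg protein run on SDS-PAGE and blotted to PVDF. STAT6 or STAT5 rabbit mAbs with GAPDH loading control, IRDye secondaries; near-infrared fluorescence scan, band intensity quantified.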
As to `CC(C)(C)[C@H](NC(=O)c1cc2cc(C(F)(F)P(=O)(O)O)ccc2s1)C(=O)N1C[C@@H](OCCCCC#Cc2cccc3c2CN(C2CCC(=O)NC2=O)C3=O)C[C@H]1C(=O)N1CCO[C@H](c2ccccc2)C1` (stereo partly drawn) [Compound 594, ((2-(((2S)-1-((2S,4S)-4-((6-(2-(2,6-dioxopiperidin-3-yl)-1-oxoisoindolin-4-yl)hex-5-yn-1-yl)oxy)-2-((R)-2-phenylmorpholine-4-carbonyl)pyrrolidin-1-yl)-3,3-dimethyl-1-oxobutan-2-yl)carbamoyl)benzo[b]thiophen-5-yl)difluoromethyl)phosphonic acid], the DC50 was below 100 nM.

Take `CC(C)(C)[C@H](NC(=O)c1cc2cc(C(F)(F)P(=O)(O)O)ccc2s1)C(=O)N1C[C@@H](OCCCCCCCC#Cc2cccc3c2CN(C2CCC(=O)NC2=O)C3=O)C[C@H]1C(=O)N1CCO[C@H](c2ccccc2)C1` (stereo partly drawn) [Compound 595, ((2-(((2S)-1-((2S,4S)-4-((9-(2-(2,6-dioxopiperidin-3-yl)-1-oxoisoindolin-4-yl)non-8-yn-1-yl)oxy)-2-((R)-2-phenylmorpholine-4-carbonyl)pyrrolidin-1-yl)-3,3-dimethyl-1-oxobutan-2-yl)carbamoyl)benzo[b]thiophen-5-yl)difluoromethyl)phosphonic acid]: the DC50 is below 100 nM.

As to `CC(C)(C)[C@H](NC(=O)c1cc2cc(C(F)(F)P(=O)(O)O)ccc2s1)C(=O)N1C[C@@H](OCCCCCCC#Cc2cccc3c2CN(C2CCC(=O)NC2=O)C3=O)C[C@H]1C(=O)N1CCS(=O)(=O)C(c2ccccc2)C1` (stereo partly drawn) [Compound 607, ((2-(((2S)-1-((2S,4S)-2-(1,1-dioxido-2-phenylthiomorpholine-4-carbonyl)-4-((8-(2-(2,6-dioxopiperidin-3-yl)-1-oxoisoindolin-4-yl)oct-7-yn-1-yl)oxy)pyrrolidin-1-yl)-3,3-dimethyl-1-oxobutan-2-yl)carbamoyl)benzo[b]thiophen-5-yl)difluoromethyl)phosphonic acid], the DC50 was below 100 nM.

The same assay, now with this note: MOLM-16 cells, numeric bound, read-out: DC50 S6 MOLM-16.
Regarding `CC(C)(C)[C@H](NC(=O)c1cc2cc(C(F)(F)P(=O)(O)O)ccc2s1)C(=O)N1CCN(C(=O)CCCCCC#Cc2ccc3c(c2)CN(C2CCC(=O)NC2=O)C3=O)C[C@H]1C(=O)N1CCO[C@H](c2ccccc2)C1` (stereo partly drawn) [Compound 596, ((2-(((2S)-1-((2S)-4-(8-(2-(2,6-dioxopiperidin-3-yl)-1-oxoisoindolin-5-yl)oct-7-ynoyl)-2-((R)-2-phenylmorpholine-4-carbonyl)piperazin-1-yl)-3,3-dimethyl-1-oxobutan-2-yl)carbamoyl)benzo[b]thiophen-5-yl)difluoromethyl)phosphonic acid], the DC50 was above 300 nM.

Take `CC(C)(C)[C@H](NC(=O)c1cc2cc(C(F)(F)P(=O)(O)O)ccc2s1)C(=O)N1CCN(C(=O)CCCC#Cc2ccc3c(c2)CN(C2CCC(=O)NC2=O)C3=O)C[C@H]1C(=O)N1CCO[C@H](c2ccccc2)C1` (stereo partly drawn) [Compound 597, ((2-(((2S)-1-((2S)-4-(6-(2-(2,6-dioxopiperidin-3-yl)-1-oxoisoindolin-5-yl)hex-5-ynoyl)-2-((R)-2-phenylmorpholine-4-carbonyl)piperazin-1-yl)-3,3-dimethyl-1-oxobutan-2-yl)carbamoyl)benzo[b]thiophen-5-yl)difluoromethyl)phosphonic acid]: the DC50 is above 300 nM.

Consider `CC(C)(C)[C@H](NC(=O)c1cc2cc(C(F)(F)P(=O)(O)O)ccc2s1)C(=O)N1C[C@@H](OCCCCCNc2cccc3c2CN(C2CCC(=O)NC2=O)C3=O)C[C@H]1C(=O)N1CCO[C@H](c2ccccc2)C1` (stereo partly drawn) [Compound 598, ((2-(((2S)-1-((2S,4S)-4-((5-((2-(2,6-dioxopiperidin-3-yl)-1-oxoisoindolin-4-yl)amino)pentyl)oxy)-2-((R)-2-phenylmorpholine-4-carbonyl)pyrrolidin-1-yl)-3,3-dimethyl-1-oxobutan-2-yl)carbamoyl)benzo[b]thiophen-5-yl)difluoromethyl)phosphonic acid], for which the 50% degradation concentration (DC50) was above 300 nM.

For `CC(C)(C)[C@H](NC(=O)c1cc2cc(C(F)(F)P(=O)(O)O)ccc2s1)C(=O)N1C[C@@H](OCCCCCCNc2cccc3c2CN(C2CCC(=O)NC2=O)C3=O)C[C@H]1C(=O)N1CCO[C@H](c2ccccc2)C1` (stereo partly drawn) [Compound 599, ((2-(((2S)-1-((2S,4S)-4-((6-((2-(2,6-dioxopiperidin-3-yl)-1-oxoisoindolin-4-yl)amino)hexyl)oxy)-2-((R)-2-phenylmorpholine-4-carbonyl)pyrrolidin-1-yl)-3,3-dimethyl-1-oxobutan-2-yl)carbamoyl)benzo[b]thiophen-5-yl)difluoromethyl)phosphonic acid], the 50% degradation concentration (DC50) was above 300 nM.

With `CC(C)(C)[C@H](NC(=O)c1cc2cc(C(F)(F)P(=O)(O)O)ccc2s1)C(=O)N1C[C@H](OCCCCCC#Cc2cccc3c2CN(C2CCC(=O)NC2=O)C3=O)C[C@H]1C(=O)N1CCO[C@H](c2ccccc2)C1` (stereo partly drawn) [Compound 600, ((2-(((2S)-1-((2S,4R)-4-((7-(2-(2,6-dioxopiperidin-3-yl)-1-oxoisoindolin-4-yl)hept-6-yn-1-yl)oxy)-2-((R)-2-phenylmorpholine-4-carbonyl)pyrrolidin-1-yl)-3,3-dimethyl-1-oxobutan-2-yl)carbamoyl)benzo[b]thiophen-5-yl)difluoromethyl)phosphonic acid], the DC50 was above 300 nM.

In the case of `CC(C)(C)[C@H](NC(=O)c1cc2cc(C(F)(F)P(=O)(O)O)ccc2s1)C(=O)N1C[C@@H](OCCCCCC#Cc2cccc3c2CN(C2CCC(=O)NC2=O)C3=O)C[C@H]1C(=O)N1CCC[C@H](c2ccccc2)C1` (stereo partly drawn) [Compound 601, ((2-(((2S)-1-((2S,4S)-4-((7-(2-(2,6-dioxopiperidin-3-yl)-1-oxoisoindolin-4-yl)hept-6-yn-1-yl)oxy)-2-((R)-3-phenylpiperidine-1-carbonyl)pyrrolidin-1-yl)-3,3-dimethyl-1-oxobutan-2-yl)carbamoyl)benzo[b]thiophen-5-yl)difluoromethyl)phosphonic acid], the DC50 was above 300 nM.

Take `CC(C)(C)[C@H](NC(=O)c1cc2cc(C(F)(F)P(=O)(O)O)ccc2s1)C(=O)N1C[C@H](OCCCCCC#Cc2cccc3c2CN(C2CCC(=O)NC2=O)C3=O)C[C@H]1C(=O)N1CCC[C@H](c2ccccc2)C1` (stereo partly drawn) [Compound 602, ((2-(((2S)-1-((2S,4R)-4-((7-(2-(2,6-dioxopiperidin-3-yl)-1-oxoisoindolin-4-yl)hept-6-yn-1-yl)oxy)-2-((R)-3-phenylpiperidine-1-carbonyl)pyrrolidin-1-yl)-3,3-dimethyl-1-oxobutan-2-yl)carbamoyl)benzo[b]thiophen-5-yl)difluoromethyl)phosphonic acid]: the DC50 was above 300 nM.

In the case of `CC(C)(C)[C@H](NC(=O)c1cc2cc(C(F)(F)P(=O)(O)O)ccc2s1)C(=O)N1C[C@H](OCCCCCC#Cc2ccc3c(c2)CN(C2CCC(=O)NC2=O)C3=O)C[C@H]1C(=O)N1CCC[C@H](c2ccccc2)C1` (stereo partly drawn) [Compound 603, ((2-(((2S)-1-((2S,4R)-4-((7-(2-(2,6-dioxopiperidin-3-yl)-1-oxoisoindolin-5-yl)hept-6-yn-1-yl)oxy)-2-((R)-3-phenylpiperidine-1-carbonyl)pyrrolidin-1-yl)-3,3-dimethyl-1-oxobutan-2-yl)carbamoyl)benzo[b]thiophen-5-yl)difluoromethyl)phosphonic acid], the DC50 is above 300 nM.

Take `CC(C)(C)[C@H](NC(=O)c1cc2cc(C(F)(F)P(=O)(O)O)ccc2s1)C(=O)N1C[C@@H](OCCN2CCC(C#Cc3cccc4c3CN(C3CCC(=O)NC3=O)C4=O)CC2)C[C@H]1C(=O)N1CCO[C@H](c2ccccc2)C1` (stereo partly drawn) [Compound 604, ((2-(((2S)-1-((2S,4S)-4-(2-(4-((2-(2,6-dioxopiperidin-3-yl)-1-oxoisoindolin-4-yl)ethynyl)piperidin-1-yl)ethoxy)-2-((R)-2-phenylmorpholine-4-carbonyl)pyrrolidin-1-yl)-3,3-dimethyl-1-oxobutan-2-yl)carbamoyl)benzo[b]thiophen-5-yl)difluoromethyl)phosphonic acid]: the DC50 was above 300 nM.

As to `CC(C)(C)[C@H](NC(=O)c1cc2cc(C(F)(F)P(=O)(O)O)ccc2s1)C(=O)N1C[C@@H](OCCN2CCC(Nc3cccc4c3CN(C3CCC(=O)NC3=O)C4=O)CC2)C[C@H]1C(=O)N1CCO[C@H](c2ccccc2)C1` (stereo partly drawn) [Compound 605, ((2-(((2S)-1-((2S,4S)-4-(2-(4-((2-(2,6-dioxopiperidin-3-yl)-1-oxoisoindolin-4-yl)amino)piperidin-1-yl)ethoxy)-2-((R)-2-phenylmorpholine-4-carbonyl)pyrrolidin-1-yl)-3,3-dimethyl-1-oxobutan-2-yl)carbamoyl)benzo[b]thiophen-5-yl)difluoromethyl)phosphonic acid], the DC50 was above 300 nM.

Values taken from patent US20230295197A1, “STAT5 and STAT6 Degraders and Uses Thereof” (REGENTS OF THE UNIVERSITY OF MICHICAN, priority 2022, published 2023).
